Data reported in US12540297B2, “Microfluidic device for cerebrovascular simulation and high-efficiency blood-brain barrier simulation system comprising same” (CELLARTGEN INC., priority 2018, dated 2026).

Tests used:
[1] = test system: EC layer of BBB in hNVU chip (NSC-EC-PC/flow group); test: BBB permeability response to TNF-α exposure in hNVU chip; assay type: cell-based, human; conditions: 20 ng/ml TNF-α
Procedure: In order to evaluate BBB permeability, the hNVU chip was placed horizontally on the substrate, and both EC and medium channels were filled with PBS to match the surface levels and homogenize the pressure applied to a 3D matrix. […] Vascular permeability was evaluated by the flow rate of the solute across the EC barrier according to the reference method. […] Vascular barrier permeability (Pv) was induced by using the mean intensity of blood vessels (Iv) and tissues (NSC gel, IT) at two different time points t1 and t2, according to Equation 6 calculated by Image J software. Here, Δt, V and Asurface are approximated by the mean morphology of the EC layer in the hNVU chip in the 3D confocal image and represent the time between two images in a selected region of interest, the NSC gel volume, and the surface area of the EC layer, respectively.

Cryptococcus neoformans = test: Multi-organ hNVU chip fungal neuroaffinity with inositol supplementation; assay type: cell-based; conditions: 200 mg/ml inositol added only to liver unit, 1 day after inoculation
Procedure: NSC, PC and EC were seeded in the same manner as described above for fabrication of the hNVU chip system, and 8×10^6 Huh-7 cells/ml encapsulated in a BMEM hydrogel were seeded in a central channel of a liver unit of the multi-organ hNVU chip. CFW-labeled fungal cells were injected through an upper reservoir of the liver unit so that the fungi were not affected by factors secreted from a brain unit. Simultaneously with fungal inoculation, inositol (200 mg/ml, Duchefa, RV Haarlem, Netherlands) was added only to a lower channel of the liver unit.

Row | Molecule | increase of permeability of the EC layer to 70 kDa FITC-dextran [1] | fungal invasion into the liver unit through the EC barrier (Cryptococcus neoformans) | level of neuroaffinity of C. neoformans (Cryptococcus neoformans)
1 | TNF-α | about 2.8 times |  | 
2 | O[C@H]1[C@H](O)[C@@H](O)[C@H](O)[C@@H](O)[C@H]1O [inositol] |  | did not increase fungal invasion | reduced the level of neuroaffinity
